Laboratory results as given in PubChem BioAssay (NCI).
“And” between values parts separate entries of the source, which are not always exact repeats. Equal values may be shown once.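 Five concentrations, 48 hours, 96-well plates. Here, GI50 denotes the concentration required for 50% inhibition of growth. TGI: total growth inhibition.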

Assays:
Assay in all cases: growth of human tumour cells (NCI), 48 h
UACC-62 melanoma = system: UACC-62 melanoma
ACHN renal = system: ACHN renal
HCT-116 colon = system: HCT-116 colon
786-0 renal = system: 786-0 renal
PC-3 prostate = system: PC-3 prostate
TK-10 renal = system: TK-10 renal
CAKI-1 renal = system: CAKI-1 renal
NCI-H522 lung = system: NCI-H522 lung
M14 melanoma = system: M14 melanoma
A549 NSCLC = system: A549 NSCLC

SMILES	GI50 (UACC-62 melanoma)	TGI (UACC-62 melanoma)	GI50 (ACHN renal)	TGI (ACHN renal)	GI50 (HCT-116 colon)	TGI (HCT-116 colon)	GI50 (786-0 renal)	TGI (786-0 renal)	GI50 (PC-3 prostate)	TGI (PC-3 prostate)	GI50 (TK-10 renal)	TGI (TK-10 renal)	GI50 (CAKI-1 renal)	TGI (CAKI-1 renal)	GI50 (NCI-H522 lung)	TGI (NCI-H522 lung)	GI50 (M14 melanoma)	TGI (M14 melanoma)	GI50 (A549 NSCLC)	TGI (A549 NSCLC)
Cc1c(N(C(=O)c2cc(-c3cc(Cl)ccc3C(=O)N3Cc4ccccc4C[C@H]3CN3CCOCC3)n(C)c2C)c2ccc(O)cc2)cc(C#N)n1C	20.6 µM	> 100 µM	23.6 µM	> 100 µM	7.66 µM	> 100 µM	12.5 µM	36.8 µM	11.3 µM	> 100 µM	12.8 µM	78 µM	6.35 µM	> 100 µM	20.4 µM	> 100 µM	21.8 µM	> 100 µM	27.6 µM	> 100 µM
CNC(=O)c1ccc(Nc2nc(OC3CCCC3)c3c(-c4ccc5nc(C)oc5c4)c[nH]c3n2)c(OC)c1	2.58 µM	> 100 µM	0.438 µM	> 100 µM	0.409 µM	> 60.5 µM	> 43.4 µM	> 100 µM	3.57 µM	> 100 µM	> 68.7 µM	> 100 µM	0.448 µM	> 100 µM	1.67 µM	> 100 µM	16.9 µM	> 100 µM	0.201 µM	> 100 µM
COc1cc(/C=C/C(=O)CC(=O)/C=C/c2ccc(OC(=O)CCNC34CC5CC(CC(C5)C3)C4)c(OC)c2)ccc1OC(=O)CCNC12CC3CC(CC(C3)C1)C2	3.5 µM	13 µM	11 µM	23.6 µM	2.37 µM	9.9 µM	3.2 µM	21.3 µM	4.13 µM	21.1 µM	7.09 µM	22.6 µM	2.51 µM	9.33 µM	4.27 µM	16.1 µM	3.48 µM	14.1 µM	10.3 µM	28.5 µM
O=C1C=CC(=O)N1c1ccc2c(c1)Cc1cc(NC(=O)C(F)(F)F)ccc1-2		30.7 µM		16.4 µM		22.6 µM		13 µM		33.1 µM		7.75 µM		32.7 µM		11.3 µM		44 µM		34.5 µM
COc1cc(/C=C2\C[C@H]3[C@@H]4CC=C5C[C@@H](OC(C)=O)CC[C@]5(C)[C@H]4CC[C@]3(C)[C@H]2OC(C)=O)ccc1OCCCn1ccnc1	8.81 µM	16.1 µM	8.49 µM	15.9 µM	7.78 µM	17.2 µM	6.06 µM	13.4 µM	11.5 µM	29.1 µM	3.73 µM	13.3 µM	7.05 µM	15.8 µM	12.8 µM	> 36.3 µM	8.85 µM	16.6 µM	8.45 µM	20.4 µM
Cc1cc(-c2cc(C)c(O)c(C(C)(C)C)c2)cc(C(C)(C)C)c1O		26.1 µM and 26.8 µM		22.4 µM and 29.1 µM		19.5 µM and 22.8 µM		22.6 µM and 25.7 µM	6.09 µM and 13.7 µM	19.2 µM and 26.5 µM		24.5 µM and 23.2 µM		22.7 µM and 27.7 µM		22.5 µM and 28.2 µM		22.4 µM and 25.4 µM		21.4 µM and 21.3 µM
COc1cc(-c2ccc(-[n+]3nc(-c4ccc([N+](=O)[O-])cc4)nn3-c3ccc([N+](=O)[O-])cc3)c(OC)c2)ccc1-[n+]1nc(-c2ccc([N+](=O)[O-])cc2)nn1-c1ccc([N+](=O)[O-])cc1	22 µM	> 82.8 µM	4.16 µM	19.2 µM	3.38 µM	> 31.6 µM	3.45 µM	23.2 µM	12.8 µM	36.5 µM	4.61 µM	17.5 µM	15.1 µM	48.5 µM	0.672 µM	7.71 µM	14.9 µM	67.2 µM	3.46 µM	31.2 µM
Cc1ccc(-c2nc3nc(-c4ccc(Cl)cc4)nc(N4CCCNCC4)c3o2)cc1	1.74 µM	3.24 µM	1.71 µM	3.09 µM	1.53 µM	2.94 µM	1.86 µM	3.54 µM	1.6 µM	3.14 µM	1.78 µM	3.33 µM	1.45 µM	2.88 µM	1.75 µM	3.85 µM	1.75 µM	3.34 µM	1.91 µM	3.83 µM
O=C(CSc1nc2sc3c(c2c(=O)n1-c1ccccc1)CCCCC3)N/N=C/c1ccc(F)cc1	11.4 µM	27.1 µM	4.76 µM	34.6 µM	2.34 µM	12 µM	5.49 µM	18.8 µM	4.91 µM	26.8 µM	1.6 µM	4.16 µM	3.18 µM	13.5 µM	6.77 µM	33 µM	5.72 µM	> 100 µM	2.48 µM	10.8 µM
C=C1C(=O)O[C@H]2[C@H]1CC/C(COC(=O)N[C@@H](Cc1c[nH]c3ccccc13)C(=O)OC)=C\CC[C@@]1(C)O[C@@H]21	1.38 µM	2.84 µM	1.16 µM	2.44 µM	1.25 µM	2.79 µM	1.48 µM	2.92 µM	1.45 µM	3.41 µM	1.72 µM	3.19 µM	1.2 µM	2.89 µM	1.31 µM	2.84 µM	1.59 µM	3.35 µM	9.94 µM	24.3 µM
Cn1c(Cc2ccccc2)nc2cc3ccccc3cc21	19.6 µM	43.5 µM	31.7 µM	> 100 µM	21 µM	42.2 µM	26 µM	65.1 µM	18.8 µM	59.6 µM	47.9 µM	> 100 µM	35.5 µM	> 100 µM	34.5 µM	> 100 µM	26.4 µM	64.3 µM	31.8 µM	> 100 µM
C[C@]12CC[C@@H]3c4ccc(OCC(=O)O)cc4CC[C@H]3[C@@H]1CCC2=O		> 100 µM		> 100 µM		> 100 µM		> 100 µM		> 100 µM		> 100 µM		> 100 µM		> 100 µM		> 100 µM		> 100 µM
